Patent US12139520B2 (priority 2020, dated 2024)
pEC50: −log10 of the molar value. Numbered stars: 1 amine (or outer) side, 2 acyl side, 3 side chain; on linkers, the order of the positions; unused ones are H or OH. Bridge positions count the residues as written; N and C are the ends. Square brackets hold non-standard residues; d marks the D form. Peptide text beside a SMILES is read from it. * marks the point of attachment. C20 diacid = O=C(O)CCCCCCCCCCCCCCCCCCC(=O)*; γGlu = O=C(O)[C@H](CCC(=O)[*:2])N[*:1]; Hyp = O=C(O)[C@@H]1C[C@@H](O)CN1

Legend:
hAM1 receptor = hAM1 receptor (Homo sapiens, UniProt O60895+Q16602); assay: cAMP assay for in vitro receptor activation, hAM1-R; type: cell-based; settings: cAMP assay, hAM1 receptor; read-out: hAM1R EC50
Method in brief: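 Stable hAM1 cells (monoclonal) plated 8000/well; buffer DPBS, 0.05% casein, 0.5 mM IBMX; cAMP read-out.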

hAMY3 receptor = biological target: T1, hAMY3 receptor (Homo sapiens, UniProt O60896+P30988); assay: cAMP assay for in vitro receptor activation, hAMY3-R; type: cell-based; settings: cAMP assay, hAMY3 receptor; read-out: hAMY3R EC50
T1 sequence (P30988 25-474): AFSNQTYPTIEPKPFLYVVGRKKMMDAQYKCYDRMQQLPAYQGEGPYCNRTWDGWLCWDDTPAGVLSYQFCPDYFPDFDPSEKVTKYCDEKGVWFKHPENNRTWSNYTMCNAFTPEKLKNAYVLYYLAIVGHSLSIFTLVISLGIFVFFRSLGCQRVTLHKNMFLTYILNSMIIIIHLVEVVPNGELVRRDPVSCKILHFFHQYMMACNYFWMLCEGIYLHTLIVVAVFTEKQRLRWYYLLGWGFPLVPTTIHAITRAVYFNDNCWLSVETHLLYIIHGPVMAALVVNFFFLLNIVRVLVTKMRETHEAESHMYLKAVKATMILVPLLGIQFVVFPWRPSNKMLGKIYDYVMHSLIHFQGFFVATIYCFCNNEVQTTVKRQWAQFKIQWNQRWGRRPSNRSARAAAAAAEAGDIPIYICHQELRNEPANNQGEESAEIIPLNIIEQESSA
T1 sequence (O60896 24-148 partner): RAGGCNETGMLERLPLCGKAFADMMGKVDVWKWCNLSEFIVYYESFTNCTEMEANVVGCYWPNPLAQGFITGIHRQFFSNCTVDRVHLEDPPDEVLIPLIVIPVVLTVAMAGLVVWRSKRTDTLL
Method in brief: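 Read-out is TR-FRET cAMP signal, recorded one hour after reagent addition, following 30 min room-temperature stimulation of stable hAMY3 cells with graded compound doses in casein/IBMX (0.5 mM) buffer.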

Chain of hAM1 receptor (Q16602 23-461): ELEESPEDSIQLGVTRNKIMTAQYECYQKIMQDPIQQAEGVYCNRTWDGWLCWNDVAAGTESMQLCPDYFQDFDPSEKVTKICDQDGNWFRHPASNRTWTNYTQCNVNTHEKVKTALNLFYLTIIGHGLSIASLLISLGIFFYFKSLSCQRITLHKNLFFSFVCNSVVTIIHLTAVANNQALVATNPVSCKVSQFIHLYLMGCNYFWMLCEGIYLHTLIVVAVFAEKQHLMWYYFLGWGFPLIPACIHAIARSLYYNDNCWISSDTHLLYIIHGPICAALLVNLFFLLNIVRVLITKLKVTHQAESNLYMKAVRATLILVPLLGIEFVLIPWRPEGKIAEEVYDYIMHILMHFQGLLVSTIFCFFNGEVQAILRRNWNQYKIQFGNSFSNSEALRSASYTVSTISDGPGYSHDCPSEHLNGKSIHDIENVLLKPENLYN
Chain of hAM1 receptor (O60895 43-175 partner): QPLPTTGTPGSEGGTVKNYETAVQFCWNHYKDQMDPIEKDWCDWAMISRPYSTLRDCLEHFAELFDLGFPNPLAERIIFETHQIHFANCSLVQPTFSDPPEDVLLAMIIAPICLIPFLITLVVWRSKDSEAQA

Row | Compound | pEC50 (hAM1 receptor) | pEC50 (hAMY3 receptor)
1 | CC[C@H](C)[C@H](NC(=O)[C@H](CCC(N)=O)NC(=O)[C@H](Cc1c[nH]cn1)NC(=O)[C@H](C)NC(=O)[C@H](CC(C)C)NC(=O)[C@H](CCCNC(=N)N)NC(=O)[C@H](CCC(N)=O)NC(=O)[C@@H](NC(=O)[C@@H](NC(=O)[C@@H]1CSSC[C@H](NC(=O)[C@H](CCCCN)NC(=O)CC[C@H](NC(=O)CCCCCCCCCCCCCCCCCCC(=O)O)C(=O)O)C(=O)N[C@@H](CC(N)=O)C(=O)N[C@@H]([C@@H](C)O)C(=O)N[C@@H](C)C(=O)N[C@@H]([C@@H](C)O)C(=O)N1)[C@@H](C)O)C(C)C)C(=O)N[C@@H](C)C(=O)N[C@@H](CCC(N)=O)C(=O)N[C@@H](Cc1ccccc1)C(=O)N[C@@H](CO)C(=O)N[C@@H](CC(=O)O)C(=O)N[C@@H](CCCCN)C(=O)N[C@@H](CC(=O)O)C(=O)N[C@@H](CCCCN)C(=O)N[C@@H](CC(=O)O)C(=O)N[C@@H](CC(N)=O)C(=O)N[C@H](C(=O)N[C@@H](C)C(=O)N1CCC[C@H]1C(=O)N1CCC[C@H]1C(=O)N[C@H](C(=O)N[C@@H](CC(N)=O)C(=O)N[C@H](C(=O)NCC(=O)N[C@@H](CO)C(=O)N[C@@H](CC(N)=O)C(=O)NCC(=O)N1C[C@H](O)C[C@H]1C(N)=O)C(C)C)[C@@H](C)O)C(C)C [compound 79] ({C20 diacid-γGlu}-KCNTATCTVQRLAHQIAQFSDKDKDNVAPPTNVGSNG[Hyp]-NH2; disulfide 2-7) | < 5.30 | 10.85
2 | CC[C@H](C)[C@H](NC(=O)[C@H](CCC(N)=O)NC(=O)[C@H](Cc1c[nH]cn1)NC(=O)[C@H](C)NC(=O)[C@H](CC(C)C)NC(=O)[C@H](CCCNC(=N)N)NC(=O)[C@H](C)NC(=O)[C@@H](NC(=O)[C@@H](NC(=O)[C@@H]1CSSC[C@H](NC(=O)[C@H](CCCCN)NC(=O)CC[C@H](NC(=O)CCCCCCCCCCCCCCCCCCC(=O)O)C(=O)O)C(=O)N[C@@H](CC(N)=O)C(=O)N[C@@H]([C@@H](C)O)C(=O)N[C@@H](C)C(=O)N[C@@H]([C@@H](C)O)C(=O)N1)[C@@H](C)O)C(C)C)C(=O)N[C@@H](CC(N)=O)C(=O)N[C@@H](CCC(N)=O)C(=O)N[C@@H](Cc1ccccc1)C(=O)N[C@H](C(=O)N[C@@H](CC(=O)O)C(=O)N[C@@H](CCCCN)C(=O)N[C@@H](CC(=O)O)C(=O)N[C@@H](CCCCN)C(=O)N[C@@H](CC(=O)O)C(=O)N1CCC[C@H]1C(=O)N[C@H](C(=O)N[C@@H](C)C(=O)N1CCC[C@H]1C(=O)N1CCC[C@H]1C(=O)N[C@H](C(=O)N[C@@H](CC(N)=O)C(=O)N[C@H](C(=O)NCC(=O)N[C@@H](CO)C(=O)N[C@@H](CC(N)=O)C(=O)NCC(=O)N1C[C@H](O)C[C@H]1C(N)=O)C(C)C)[C@@H](C)O)C(C)C)[C@@H](C)O [compound 137] ({C20 diacid-γGlu}-KCNTATCTVARLAHQINQFTDKDKDPVAPPTNVGSNG[Hyp]-NH2; disulfide 2-7) | < 5.30 | 10.47
3 | CC[C@H](C)[C@H](NC(=O)[C@H](CCC(N)=O)NC(=O)[C@H](Cc1c[nH]cn1)NC(=O)[C@H](C)NC(=O)[C@H](CC(C)C)NC(=O)[C@H](CCCNC(=N)N)NC(=O)[C@H](CCC(N)=O)NC(=O)[C@@H](NC(=O)[C@@H](NC(=O)[C@@H]1CSSC[C@H](NC(=O)[C@H](CCCCN)NC(=O)CC[C@H](NC(=O)CCCCCCCCCCCCCCCCCCC(=O)O)C(=O)O)C(=O)N[C@@H](CC(N)=O)C(=O)N[C@@H]([C@@H](C)O)C(=O)N[C@@H](C)C(=O)N[C@@H]([C@@H](C)O)C(=O)N1)[C@@H](C)O)C(C)C)C(=O)N[C@@H](C)C(=O)N[C@@H](CCC(N)=O)C(=O)N[C@@H](Cc1ccccc1)C(=O)N[C@H](C(=O)N[C@@H](CC(N)=O)C(=O)N[C@@H](CCCCN)C(=O)N[C@@H](CC(=O)O)C(=O)N[C@@H](CCCCN)C(=O)N[C@@H](CC(=O)O)C(=O)N[C@@H](CC(N)=O)C(=O)N[C@H](C(=O)N[C@@H](C)C(=O)N1CCC[C@H]1C(=O)N1CCC[C@H]1C(=O)N[C@H](C(=O)N[C@@H](CC(N)=O)C(=O)N[C@H](C(=O)NCC(=O)N[C@@H](CO)C(=O)N[C@@H](CC(N)=O)C(=O)NCC(=O)N1C[C@H](O)C[C@H]1C(N)=O)C(C)C)[C@@H](C)O)C(C)C)[C@@H](C)O [compound 95] ({C20 diacid-γGlu}-KCNTATCTVQRLAHQIAQFTNKDKDNVAPPTNVGSNG[Hyp]-NH2; disulfide 2-7) | < 5.30 | 10.80
4 | CC[C@H](C)[C@H](NC(=O)[C@H](CCC(N)=O)NC(=O)[C@H](Cc1c[nH]cn1)NC(=O)[C@H](C)NC(=O)[C@H](CC(C)C)NC(=O)[C@H](CCCNC(=N)N)NC(=O)[C@H](CCC(N)=O)NC(=O)[C@@H](NC(=O)[C@@H](NC(=O)[C@@H]1CSSC[C@H](NC(=O)[C@H](CCCCN)NC(=O)CC[C@H](NC(=O)CCCCCCCCCCCCCCCCCCC(=O)O)C(=O)O)C(=O)N[C@@H](CC(N)=O)C(=O)N[C@@H]([C@@H](C)O)C(=O)N[C@@H](CO)C(=O)N[C@@H]([C@@H](C)O)C(=O)N1)[C@@H](C)O)C(C)C)C(=O)N[C@@H](Cc1ccc(O)cc1)C(=O)N[C@@H](CCC(N)=O)C(=O)N[C@@H](Cc1ccccc1)C(=O)N[C@H](C(=O)N[C@@H](CC(=O)O)C(=O)N[C@@H](CCCCN)C(=O)N[C@@H](CC(=O)O)C(=O)N[C@@H](CCCCN)C(=O)N[C@@H](CC(=O)O)C(=O)N[C@@H](CC(N)=O)C(=O)N[C@H](C(=O)N[C@@H](C)C(=O)N1CCC[C@H]1C(=O)N1CCC[C@H]1C(=O)N[C@H](C(=O)N[C@@H](CC(N)=O)C(=O)N[C@H](C(=O)NCC(=O)N[C@@H](CO)C(=O)N[C@@H](CC(N)=O)C(=O)NCC(=O)N1C[C@H](O)C[C@H]1C(N)=O)C(C)C)[C@@H](C)O)C(C)C)[C@@H](C)O [compound 50] ({C20 diacid-γGlu}-KCNTSTCTVQRLAHQIYQFTDKDKDNVAPPTNVGSNG[Hyp]-NH2; disulfide 2-7) | < 5.30 | 10.96

The next lines start with the values.

Row | pEC50 (hAM1 receptor) | pEC50 (hAMY3 receptor) | Compound
5 | < 5.30 | 11.10 | CC[C@H](C)[C@H](NC(=O)[C@H](CCC(N)=O)NC(=O)[C@H](Cc1c[nH]cn1)NC(=O)[C@H](C)NC(=O)[C@H](CC(C)C)NC(=O)[C@H](CCCNC(=N)N)NC(=O)[C@H](CCC(N)=O)NC(=O)[C@@H](NC(=O)[C@@H](NC(=O)[C@@H]1CSSC[C@H](NC(=O)[C@@H](N)CCCCN)C(=O)N[C@@H](CC(N)=O)C(=O)N[C@@H]([C@@H](C)O)C(=O)N[C@@H](C)C(=O)N[C@@H]([C@@H](C)O)C(=O)N1)[C@@H](C)O)C(C)C)C(=O)N[C@@H](Cc1ccc(O)cc1)C(=O)N[C@@H](CCC(N)=O)C(=O)N[C@@H](Cc1ccccc1)C(=O)N[C@H](C(=O)N[C@@H](CC(=O)O)C(=O)N[C@@H](CCCCN)C(=O)N[C@@H](CC(=O)O)C(=O)N[C@@H](CCCCN)C(=O)N[C@@H](CC(=O)O)C(=O)N[C@@H](CC(N)=O)C(=O)N[C@H](C(=O)N[C@@H](C)C(=O)N1CCC[C@H]1C(=O)N[C@H](C(=O)N[C@@H](CC(N)=O)C(=O)N[C@H](C(=O)NCC(=O)N[C@@H](CO)C(=O)N[C@@H](CC(N)=O)C(=O)NCC(=O)N1C[C@H](O)C[C@H]1C(N)=O)C(C)C)[C@@H](C)O)C(C)C)[C@@H](C)O [compound 31] (H-KCNTATCTVQRLAHQIYQFTDKDKDNVAPTNVGSNG[Hyp]-NH2; disulfide 2-7; N-terminus assumed)
6 | < 5.30 | 10.32 | CC[C@H](C)[C@H](NC(=O)[C@H](CCC(N)=O)NC(=O)[C@H](Cc1c[nH]cn1)NC(=O)[C@H](C)NC(=O)[C@H](CC(C)C)NC(=O)[C@H](CCCNC(=N)N)NC(=O)[C@@H](NC(=O)[C@@H](NC(=O)[C@@H](NC(=O)[C@@H]1CSSC[C@H](NC(=O)[C@H](CCCCN)NC(=O)CC[C@H](NC(=O)CCCCCCCCCCCCCCCCCCC(=O)O)C(=O)O)C(=O)N[C@@H](CC(N)=O)C(=O)N[C@@H]([C@@H](C)O)C(=O)N[C@@H](C)C(=O)N[C@@H]([C@@H](C)O)C(=O)N1)[C@@H](C)O)C(C)C)[C@@H](C)CC)C(=O)N[C@@H](Cc1ccc(O)cc1)C(=O)N[C@@H](CCC(N)=O)C(=O)N[C@@H](Cc1ccccc1)C(=O)N[C@H](C(=O)N[C@@H](CC(=O)O)C(=O)N[C@@H](CCCCN)C(=O)N[C@@H](CC(=O)O)C(=O)N[C@@H](CCCCN)C(=O)N[C@@H](CC(=O)O)C(=O)N[C@@H](CC(N)=O)C(=O)N[C@H](C(=O)N[C@@H](C)C(=O)N1CCC[C@H]1C(=O)N1CCC[C@H]1C(=O)N[C@H](C(=O)N[C@@H](CC(N)=O)C(=O)N[C@H](C(=O)NCC(=O)N[C@@H](CO)C(=O)N[C@@H](CC(N)=O)C(=O)NCC(=O)N1C[C@H](O)C[C@H]1C(N)=O)C(C)C)[C@@H](C)O)C(C)C)[C@@H](C)O [compound 159] ({C20 diacid-γGlu}-KCNTATCTVIRLAHQIYQFTDKDKDNVAPPTNVGSNG[Hyp]-NH2; disulfide 2-7)
